Results: US10329289B2, “6,7-dihydro-5H-pyrrolo[3,4-B]pyridin-5-one allosteric modulators of the M4 muscarinic acetylcholine receptor” (Merck Sharp & Dohme Corp., priority 2015, dated 2019)

Target: T1, human M4 muscarinic acetylcholine receptor (Homo sapiens, UniProt P08173)
T1 construct: expressed in transfected cells; host or cells: CHO-K1
T1 sequence (P08173 1-479): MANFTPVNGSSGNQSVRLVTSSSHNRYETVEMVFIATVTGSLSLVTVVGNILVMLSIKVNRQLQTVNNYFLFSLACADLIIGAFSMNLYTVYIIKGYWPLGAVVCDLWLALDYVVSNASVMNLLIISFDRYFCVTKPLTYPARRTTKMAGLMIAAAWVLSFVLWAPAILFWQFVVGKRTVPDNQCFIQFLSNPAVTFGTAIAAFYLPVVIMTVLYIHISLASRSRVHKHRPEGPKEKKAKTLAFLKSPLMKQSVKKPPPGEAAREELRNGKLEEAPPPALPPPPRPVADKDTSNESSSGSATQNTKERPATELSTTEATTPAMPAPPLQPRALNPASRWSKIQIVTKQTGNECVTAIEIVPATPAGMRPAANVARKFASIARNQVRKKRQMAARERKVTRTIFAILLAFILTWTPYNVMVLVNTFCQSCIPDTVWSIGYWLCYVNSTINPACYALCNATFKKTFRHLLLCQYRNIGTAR
Assay: human FLIPR-based M4 PAM assay (Ca2+ mobilization, CHO-K1 cells with human M4 receptor and Gαqi5)
Assay type: cell-based
Details: acetylcholine at 20% of maximum response, read-out: M4 PAM IP
How it was run: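 Calcium-mobilization (FLIPR) readout in dye-loaded CHO-K1 cells co-expressing human M4 receptor and Gαqi5. Potentiation measured against acetylcholine at a concentration giving 20% of maximal response, with an optional 70% addition; the reported value is the curve inflection point from a 4-parameter logistic fit.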

EC50 | SMILES
40 nM | CCc1cc2c(nc1N1CCC(Oc3ccc4c(c3)COC4)CC1)[C@@H](CO)N(C)C2=O [Example 351, (S)-2-(4-((1,3-dihydro-2-benzofuran-5-yl)oxy)piperidin-1-yl)-3-ethyl-7-(hydroxymethyl)-6-methyl-6,7-dihydro-5H-pyrrolo[3,4-b]pyridin-5-one]
19 nM | CCN1C(=O)c2c(nc(N3CCC(Oc4ccc5c(c4)COC5)CC3)c(C)c2C)[C@H]1CO [Example 351A, (S)-2-(4-((1,3-dihydroisobenzofuran-5-yl)oxy)piperidin-1-yl)-6-ethyl-7-(hydroxymethyl)-3,4-dimethyl-6,7-dihydro-5H-pyrrolo[3,4-b]pyridin-5-one]
2100 nM | CCc1cc2c(nc1N1CCC(Oc3ccc4c(c3)COC4)CC1)[C@H](CO)N(C)C2=O [Example 352, can-2-(4-((1,3-dihydro-2-benzofuran-5-yl)oxy)piperidin-1-yl)-3-ethyl-7-(hydroxymethyl)-6-methyl-6,7-dihydro-5H-pyrrolo[3,4-b]pyridin-5-one]
30 nM | Cc1c(N2CCC(Oc3ccc(F)cc3)CC2)nc2c(c1C)C(=O)N(C)[C@@H]2CO [Example 353, (S)-2-(4-(4-fluorophenoxy)piperidin-1-yl)-7-(hydroxymethyl)-3,4,6-trimethyl-6,7-dihydro-5H-pyrrolo[3,4-b]pyridin-5-one]
1470 nM | Cc1c(N2CCC(Oc3ccc(F)cc3)CC2)nc2c(c1C)C(=O)N(C)[C@H]2CO [Example 354, (R)-2-(4-(4-fluorophenoxy)piperidin-1-yl)-7-(hydroxymethyl)-3,4,6-trimethyl-6,7-dihydro-5H-pyrrolo[3,4-b]pyridin-5-one]
16 nM | Cc1cc2c(nc1N1CCC(Oc3ccc4c(c3)OCC4)CC1)[C@@H](CO)N(C)C2=O [Example 355, (S)-2-(4-((2,3-dihydrobenzofuran-6-yl)oxy)piperidin-1-yl)-7-(hydroxymethyl)-3,6-dimethyl-6,7-dihydro-5H-pyrrolo[3,4-b]pyridin-5-one]
788 nM | Cc1cc2c(nc1N1CCC(Oc3ccc4c(c3)OCC4)CC1)[C@H](CO)N(C)C2=O [Example 356, (R)-2-(4-((2,3-dihydrobenzofuran-6-yl)oxy)piperidin-1-yl)-7-(hydroxymethyl)-3,6-dimethyl-6,7-dihydro-5H-pyrrolo[3,4-b]pyridin-5-one]
87 nM | Cc1cc2c(nc1N1CCC(Oc3cnn(C)c3)CC1)[C@@H](CO)N(C)C2=O [Example 357, (S)-7-(hydroxymethyl)-3,6-dimethyl-2-(4-((1-methyl-1H-pyrazol-4-yl)oxy)piperidin-1-yl)-6,7-dihydro-5H-pyrrolo[3,4-b]pyridin-5-one]
8070 nM | Cc1cc2c(nc1N1CCC(Oc3cnn(C)c3)CC1)[C@H](CO)N(C)C2=O [Example 358, (R)-7-(hydroxymethyl)-3,6-dimethyl-2-(4-((1-methyl-1H-pyrazol-4-yl)oxy)piperidin-1-yl)-6,7-dihydro-5H-pyrrolo[3,4-b]pyridin-5-one]
37 nM | Cc1cc2c(nc1N1CCC(Oc3ccc4c(cnn4C)c3)CC1)[C@@H](CO)N(C)C2=O [Example 359, (S)-7-(hydroxymethyl)-3,6-dimethyl-2-(4-((1-methyl-1H-indazol-5-yl)oxy)piperidin-1-yl)-6,7-dihydro-5H-pyrrolo[3,4-b]pyridin-5-one]
1680 nM | Cc1cc2c(nc1N1CCC(Oc3ccc4c(cnn4C)c3)CC1)[C@H](CO)N(C)C2=O [Example 360, (R)-7-(hydroxymethyl)-3,6-dimethyl-2-(4-((1-methyl-1H-indazol-5-yl)oxy)piperidin-1-yl)-6,7-dihydro-5H-pyrrolo[3,4-b]pyridin-5-one]
85 nM | CCc1cc2c(nc1N1CCC(Oc3ccc4c(c3)COCC4)CC1)[C@@H](CO)N(C)C2=O [Example 361, (S)-3-ethyl-7-(hydroxymethyl)-2-(4-(isochroman-7-yloxy)piperidin-1-yl)-6-methyl-6,7-dihydro-5H-pyrrolo[3,4-b]pyridin-5-one]
1290 nM | CCc1cc2c(nc1N1CCC(Oc3ccc4c(c3)COCC4)CC1)[C@H](CO)N(C)C2=O [Example 362, (R)-3-ethyl-7-(hydroxymethyl)-2-(4-(isochroman-7-yloxy)piperidin-1-yl)-6-methyl-6,7-dihydro-5H-pyrrolo[3,4-b]pyridin-5-one]
100 nM | CCc1cc2c(nc1N1CCC(Oc3ccc4c(cnn4C)c3)CC1)[C@@H](CO)N(C)C2=O [Example 363, (S)-3-ethyl-7-(hydroxymethyl)-6-methyl-2-(4-((1-methyl-1H-indazol-5-yl)oxy)piperidin-1-yl)-6,7-dihydro-5H-pyrrolo[3,4-b]pyridin-5-one]
3770 nM | CCc1cc2c(nc1N1CCC(Oc3ccc4c(cnn4C)c3)CC1)[C@H](CO)N(C)C2=O [Example 364, (R)-3-ethyl-7-(hydroxymethyl)-6-methyl-2-(4-((1-methyl-1H-indazol-5-yl)oxy)piperidin-1-yl)-6,7-dihydro-5H-pyrrolo[3,4-b]pyridin-5-one]
26 nM | CCc1cc2c(nc1N1CCC(Oc3ccc4c(c3)OCC4)CC1)[C@@H](CO)N(C)C2=O [Example 365, (S)-2-(4-((2,3-dihydrobenzofuran-6-yl)oxy)piperidin-1-yl)-3-ethyl-7-(hydroxymethyl)-6-methyl-6,7-dihydro-5H-pyrrolo[3,4-b]pyridin-5-one]
1240 nM | CCc1cc2c(nc1N1CCC(Oc3ccc4c(c3)OCC4)CC1)[C@H](CO)N(C)C2=O [Example 366, (R)-2-(4-((2,3-dihydrobenzofuran-6-yl)oxy)piperidin-1-yl)-3-ethyl-7-(hydroxymethyl)-6-methyl-6,7-dihydro-5H-pyrrolo[3,4-b]pyridin-5-one]
57 nM | Cc1c(N2CCC(Oc3ccc4c(c3)CCOC4)CC2)nc2c(c1C)C(=O)N(C)[C@@H]2CO [Example 369, (S)-7-(hydroxymethyl)-2-(4-(isochroman-6-yloxy)piperidin-1-yl)-3,4,6-trimethyl-6,7-dihydro-5H-pyrrolo[3,4-b]pyridin-5-one]
1190 nM | Cc1c(N2CCC(Oc3ccc4c(c3)CCOC4)CC2)nc2c(c1C)C(=O)N(C)[C@H]2CO [Example 370, (R)-7-(hydroxymethyl)-2-(4-(isochroman-6-yloxy)piperidin-1-yl)-3,4,6-trimethyl-6,7-dihydro-5H-pyrrolo[3,4-b]pyridin-5-one]
100 nM | Cc1cc2c(nc1N1CCC(Oc3ccc4c(cnn4CCO)c3)CC1)CNC2=O [Example 371, 2-(4-((1-(2-Hydroxyethyl)-1H-indazol-5-yl)oxy)piperidin-1-yl)-3-methyl-6,7-dihydro-5H-pyrrolo[3,4-b]pyridin-5-one]
634 nM | C=Cc1c(C)c(N2CCC(Oc3ccc(OC)nc3)CC2)nc2c1C(=O)NC2 [Example 372, 2-(4-((6-Methoxypyridin-3-yl)oxy)piperidin-1-yl)-3-methyl-4-vinyl-6,7-dihydro-5H-pyrrolo[3,4-b]pyridin-5-one]
69 nM | Cc1cc2c(nc1N1CCC(Oc3ccc4c(c3)CC(=O)C4)CC1)CNC2=O [Example 373, 3-Methyl-2-(4-((2-oxo-2,3-dihydro-1H-inden-5-yl)oxy)piperidin-1-yl)-6,7-dihydro-5H-pyrrolo[3,4-b]pyridin-5-one]
69 nM | COc1ccc(OC2CCN(c3nc4c(cc3C)C(=O)N(CCO)C4CO)CC2)cn1 (centres unmarked) [Example 375, 6-(2-Hydroxyethyl)-7-(hydroxymethyl)-2-(4-((6-methoxypyridin-3-yl)oxy)piperidin-1-yl)-3-methyl-6,7-dihydro-5H-pyrrolo[3,4-b]pyridin-5-one]
